Data published in patent publication US20250082654A1, “AZD3355 (LESOGABERAN) FOR TREATMENT AND PREVENTION OF NONALCOHOLIC STEATOHEPATITIS (NASH), LIVER FIBROSIS, AND OTHER LIVER CONDITIONS” (Icahn School of Medicine at Mount Sinai, priority 2018, published 2025).

Experiments:
[1] = test system: NASH model mice; assay: NASH mouse model, histopathological scoring of liver sections; format: in vivo; details: 30 mg/kg daily; for Hepatocyte ballooning ± SE: score 0-2; for Portal inflammation ± SE / Lobular Inflammation ± SE / Steatosis ± SE: score 0-3; for Fibrosis Stage ± SE: score 0-4; for NAFLD activity score (NAS) ± SE: score 0-8
Protocol: Four separate groups of mice were given either 0.5% methylcellulose (as Vehicle) or AZD3355 at 10 mg/kg (low dose) body weight of mice or 30 mg/kg (high dose) body weight of mice by twice daily (BID (5 days/week)) and OCA at 30 mg/kg body weight of mice by daily (QD (5 days/week)) through oral route for up to next 12 weeks (week 13 to week 24). Them last group of mice were not given any drug or vehicle treatment, as No Tx—24 weeks and maintained in parallel with treatment/vehicle groups. Usually all doses were given at early morning and the second daily dose of AZD3355 at evening (10 hours of intervals). All animals were closely monitored the health conditions and behavior.
A piece of tissue from large liver lobe was fixed in 10% Formalin Buffered (Astral Diagnostics Incorporated NJ) embedded in paraffin and microtome sectioning were performed. Slides containing tissue sections were baked at 60° C. for 1 hour and re-hydrated through xylene followed by graded ethanol (100%, 95%, 85% and 70%) into distilled water and processed in either Picrosirius red/Fast green or hematoxylin and eosin staining.
A total of 2 sections/animal were stained with H&E staining performed by standard protocol.
Steatosis, hepatocyte ballooning, lobular inflammation, portal inflammation and fibrosis of picroserious red/fast green and H&E stained liver section were scored according to the NASH Clinical Research Network (NASH CRN) scoring system in a blinded fashion by an expert hepato-pathologist in Icahn School of Medicine at Mount Sinai. NAFLD activity score (NAS) was calculated according to Brunt criteria and range from 0-8. NAS was calculated by the sum of scores of steatosis (0-3), hepatocyte ballooning (0-2) and lobular inflammation (0-3). NAS score of >5.0 strongly correlated with “definite-NASH” whereas <3 correlated with “not-NASH”. Fibrosis (0-4) or portal inflammation (0-3) scores were assessed separately and not included in NAS.

[2] = test system: LX-2 cells; assay: Fibrogenic gene expression by RT-qPCR; format: cell-based, human; details: 48 and 72 hours
Protocol: The following fibrogenic gene expressions were quantified by RT-qPCR: • 1. Collagen1α1 (Col1α1); • 2. Alpha Smooth Muscle Actin (αSMA); • 3. Beta PDGF receptor (β-PDGFR); • 4. Transforming growth factor-β receptor1 (TGFβ-R1); • 5. Tissue inhibitor of metalloproteinase—1 (TIMP1); • 6. Tissue inhibitor of metalloproteinase—2 (TIMP2); and • 7. Matrix Metalloproteinase 2 (MMP2).
The kinase inhibitor sorafenib (7.5 μM concentration) was used as positive control and run in parallel. 150,000 LX-2 cells or 200,000 phHSCs per well were plated on 6-well plate dish. Cells were starved overnight in DMEM supplemented with 0.1% BSA (without antibiotic). Cells were then incubated with either AZD3355 or sorafenib at the indicated concentration and duration. Cells were harvested and total RNA was extracted using RNeasy Mini Kit (Qiagen, CA). 0.5 μg of total RNA was used for reverse transcription with ‘RNA to cDNA EcoDry Premix (Double Primed) Kit’ (Clontech, CA). Expression of fibrogenic genes were measured by qPCR using custom designed primers (Sigma-Aldrich, MO) and iQ SYBR Green Supermix (Bio-Rad, CA) on a LightCycler 480 II (Roche Diagnostics Corporation, IN) instrument. Glyceraldehyde-3-phosphate dehydrogenase (GAPDH), […] (RPII), α-tubulin and β-actin genes were tested to determine the best fit for housekeeping gene of the study. […]

[3] = test system: LX-2 cells; assay: Fibrogenic protein expression by western blot and densitometry from cell lysate; format: cell-based, human; details: LX2 cells, 48 or 72 hours, 30 nM or 100 nM AZD3355 or sorafenib
Protocol: (§1) Western blot and RT-qPCR experiments were run in parallel. 150,000 LX-2 cells or 200,000 phHSCs per well were plated on a 6-well plate dish. Cells were starved overnight in DMEM supplemented with 0.1% BSA (without antibiotic). Cells were then incubated with either AZD3355 or sorafenib at the indicated concentration and duration. Cells were harvested and lysed using RIPA buffer (50 mM Tris-HC1 pH8.0, 150 mM NaCl, 1% IGEPAL, 0.5% sodium deoxycholate and 0.1% SDS) along with Pierce Protease Inhibitor Mini Tablets, EDTA-Free (ThermoScientific, IL). Total protein was measured by Bradford colorimetric assay using Protein Assay Dye Reagent Concentrate (Bio-Rad, CA). […] After hybridized with HRP conjugated secondary antibody (either Goat anti-rabbit HRP (Jackson ImmunoResearch Laboratories, PA) or anti-mouse IgG-HRP (Cell Signaling Technology, MA) the membrane was treated with Immobilon Western Chemiluminescent HRP substrate (Millipore, MA) and the signals were captured with Amersham Imager 6000 (GE Healthcare, PA). 210 kD of Col1α1, 72 kD of MMP2 and 42 kD of α-SMA bands were recognized by respective antibody. 37 kD band of GAPDH was probed as loading control. For densitometric measurement of the protein bands, images were exported and analyzed using ImageJ 1.50 f software and bands were normalized to the loading control, GAPDH.

[4] = test system: phHSCs; assay: as above; format: cell-based, human; details: 48 or 72 hours
Protocol: as §1

[5] = test system: human liver slices; assay: Liver slice assay, histopathology and H&E staining; format: cell-based; details: 24 hours
Protocol: Ten human liver pieces were collected from the Mount Sinai biorepository. The samples were prepared by coring the liver with 8 mm cylindrical coring tools. The liver cores were kept in ice cold WE medium, with GlutaMAX supplemental. A liver core was then mounted on a specimen plate with cyanoacrylate adhesive. Liver slices (approximately 200 μm in thickness) were placed in ice cold Krebs-Henesleit buffer in the presence of carbogen gas. There was then a 1 hour pre-incubation in WE GlutaMAX media with gentamicin in 95% O2 and 5% CO2 at 37° C. in a humidified rocker chamber to restore ATP levels.
The liver slices were then cultured in WE GlutaMAX media with gentamicin in 95% O2 and 5% CO2 at 37° C. in a humidified rocker chamber with slow 70 rpm rocking in the presence of AZD3355 in the amounts of 250 nM, 500 nM, 1000 nM, or 2000 nM, or sorafenib at 1000 nM., or control vehicle (saline water).
After 24 hours, the tissue slices were harvested for either RNA isolation and quantitative PCR for measurements of Col1α1, TNFα, and IL-6 expression, or for histopathology and hematoxylin and eosin (H&E) staining as described in Example 3.

[6] = test system: carbon tetrachloride-induced liver injury; details: in vivo; cited from earlier work

CC[C@H]1[C@@H](O)[C@@H]2[C@H](CC[C@]3(C)[C@@H]([C@H](C)CCC(=O)O)CC[C@@H]23)[C@@]2(C)CC[C@@H](O)C[C@@H]12 [OCA, Obeticholic acid, reference compound]
Hepatocyte ballooning ± SE ([1]; ♀ Mice, vehicle 1.2 ± 0.1): 1.1 ± 0.2
Portal inflammation ± SE ([1]; ♀ Mice, vehicle 1.6 ± 0.1): 1.0 ± 0.2
Lobular Inflammation ± SE ([1]; ♀ Mice, vehicle 2.3 ± 0.1): 1.6 ± 0.1
Steatosis ± SE ([1]; ♀ Mice, vehicle 2.5 ± 0.1): 2.0 ± 0.2
Fibrosis Stage ± SE ([1]; ♀ Mice, vehicle 3.0 ± 0.1): 2.2 ± 0.1
NAFLD activity score (NAS) ± SE ([1]; ♀ Mice, vehicle 6.1 ± 0.4): 4.7 ± 0.6
Steatohepatitis Grade ± SE ([1]; ♀ Mice, vehicle 1.8 ± 0.2): 1.4 ± 0.3
Hepatocyte ballooning ± SE ([1]; ♂ Mice, vehicle 1.7 ± 0.1): 1.0 ± 0.2
Portal inflammation ± SE ([1]; ♂ Mice, vehicle 2.0 ± 0.1): 1.3 ± 0.2
Steatosis ± SE ([1]; ♂ Mice, vehicle 2.7 ± 0.1): 2.0 ± 0.2
Lobular Inflammation ± SE ([1]; ♂ Mice, vehicle 2.8 ± 0.1): 1.9 ± 0.2
Fibrosis Stage ± SE ([1]; ♂ Mice, vehicle 3.3 ± 0.1): 2.9 ± 0.1
NAFLD activity score (NAS) ± SE ([1]; ♂ Mice, vehicle 7.2 ± 0.3): 5.0 ± 0.6
Steatohepatitis Grade ± SE ([1]; ♂ Mice, vehicle 2.6 ± 0.2): 1.5 ± 0.3

CNC(=O)c1cc(Oc2ccc(NC(=O)Nc3ccc(Cl)c(C(F)(F)F)c3)cc2)ccn1 [Sorafenib, sorafenib]
gene expression of pro-fibrogenic genes Col1α1, αSMA, βPDGF-R, TGFβ-R1, TIMP1, TIMP2, MMP2 [2]: downregulated
protein expression of Col1α1 (western blot) [3]: no change
protein expression of Col1α1 (western blot) [4]: no change
liver cells viability (H&E) [5]: did not change

NCC(CC(=O)O)c1ccc(Cl)cc1 (stereo not shown) [baclofen]
liver injury due to carbon tetrachloride [6]: attenuates injury
